Source: PubChem BioAssay AID449750 (Broad Institute, 2010)
Where “and” joins values, the source holds several entries; their conditions need not be identical. Equal entries are not always repeated. Calls of active or inactive are those of the source. The rule behind the calls is not given here.

Assay: non-covalent RecA intein splicing inhibitors, dose response, biochemical, cell-free, fluorescence, secondary screen (AID 449750)
Molecule CC(C)(C)c1cc(C(=O)CCN2CCOCC2)cc(C(C)(C)C)c1O has an AC50 of 12.1 µM.
For O=C(CN1C(=O)S/C(=C\C=C\c2ccccc2)C1=O)Nc1ccccc1C(=O)O, the AC50 was 14.1 µM.
Molecule CC(C)C(=O)N1CCN(c2nc(-c3ccccc3)c3c(c2C#N)CCCC3)CC1 has an AC50 of 9.83 µM.
Molecule C(=N\Nc1nncc2ccccc12)/c1ccccn1 has an AC50 of 19.8 µM.
For O=C(Cc1ccccc1Cl)NC1(O)C(=O)c2ccccc2C1=O, the AC50 was 7.63 µM.
For COc1ccc(CN(CCC(c2ccccc2)c2ccc(OC(C)C)cc2)C(=O)CCl)cc1OC (stereo not given), the AC50 was 0.569 µM.
In the case of CCOc1ccccc1Nc1nnc(Cc2ccccc2Cl)c(=O)[nH]1, the AC50 is reported as > 38 µM (inactive).
With CC(C)(C)c1ccc(S(=O)(=O)/N=C2\C=C(NS(=O)(=O)c3ccccc3)C(=O)c3ccccc32)cc1 the AC50 was 5.5 µM.
For O=c1cc(N=Nc2ccc(Cl)cc2)[nH]c(=O)[nH]1, the AC50 was > 38 µM (inactive).
Work on Cc1sc(NC(=O)CSC2=NCCS2)nc1-c1ccccc1 yielded an AC50 of 26.1 µM.
Work on CCc1cccc(NC(=O)CSCc2cc(=O)[nH][nH]2)c1 yielded an AC50 of 27.7 µM.
For Cc1nc([N+](=O)[O-])c(Sc2nc3ccccc3[nH]2)n1Cc1ccccc1, the AC50 was > 38 µM (inactive).
Molecule Cc1nnc(NC(=O)c2nc(S(=O)(=O)Cc3ccccc3)ncc2Cl)s1 has an AC50 of 26.5 µM.
CN(Cc1ccc(Cl)cc1)C(=O)CCl gave an AC50 of 10.2 µM.
Work on CC(C)NC(=S)NC(c1ccccc1)(c1ccccc1)c1ccccc1 yielded an AC50 of 27.9 µM.
With Oc1cc(O)c2c(c1)O[C@H](c1ccc(O)c(O)c1)[C@@H](O)C2 the AC50 was > 38 µM (inactive).
c1ccc2[nH]c3cc4ncnc4cc3nc2c1 gave an AC50 of 37.5 µM.
For O=[N+]([O-])c1cccc2c([As](=O)(O)O)cccc12, the AC50 was > 38 µM (inactive).
With CCCCNC1C(CC)C(CCC)C(C#N)(C#N)C1(C#N)C#N (stereo not given) the AC50 was > 38 µM (inactive).
Work on CC(C)CCn1c(Sc2nc3ccccc3o2)nc2c1c(=O)[nH]c(=O)n2C yielded an AC50 of 5.08 µM.
For COc1ccc(/C=C2/C(=O)N(c3ccccc3)N=C2C)c(OC)c1, the AC50 was 18.5 µM.
For NS(=O)(=O)c1ccc(NC2=CC(=O)C(=O)c3ccccc32)cc1, the AC50 was 7.47 µM.
For Cc1cc(O)c(C(C)C)cc1N=Cc1ccccc1O, the AC50 was 5.1 µM.
Work on OCC[n+]1c2ccccc2nc2ccc(N3CCOCC3)cc21 yielded an AC50 of 26.5 µM.
With CCOC(=O)/C(C#N)=C\c1ccc(O)c(OC)c1 the AC50 was > 38 µM (inactive).
Work on Cc1cc(=O)n(CCCc2ccccc2)[nH]1 yielded an AC50 of 36.5 µM.
For CCOC(=O)Cc1[nH]nc2c1C(c1ccsc1)C(C#N)=C(N)O2 (stereo not given), the AC50 was > 38 µM (inactive).
Work on O=C(CCN1C(=O)/C(=C/c2cccs2)SC1=S)Nc1ccc(C(=O)O)c(O)c1 yielded an AC50 of 19 µM.
With CCN(CC)C(=O)c1ccc2c(c1[N+](=O)[O-])C(=O)c1ccccc1C2=O the AC50 was > 38 µM (inactive).
With Cn1c(SCC(=O)NCC2CCCO2)ncc(C(=O)Nc2ccc(Cl)cc2)c1=O (stereo not given) the AC50 was > 38 µM (inactive).
In the case of FC(F)(F)c1nnc(-c2ccccc2)nc1Sc1ccccc1, the AC50 is reported as > 38 µM (inactive).
For O=C(Oc1ccc(-c2nnco2)cc1)c1ccco1, the AC50 was > 38 µM (inactive).
In the case of O=C(CCl)N(c1ccc(Cl)cc1)c1c[nH]c2ccccc12, the AC50 is reported as 0.746 µM.
With Cc1ccc(C)c(NC(=O)CSc2n[nH]c(-c3ccccn3)n2)c1 the AC50 was > 38 µM (inactive).
For CCc1ccc(NC(=O)CSc2ccc(-c3sc(C)nc3C)nn2)cc1, the AC50 was > 38 µM (inactive).
With c1ccc(CNc2nc(NCc3ccccc3)c3ccccc3n2)cc1 the AC50 was 7.61 µM.
With Cc1cccc(S(=O)(=O)C(C#N)c2nc3ccccc3nc2N2CCCC2)c1 (stereo not given) the AC50 was > 38 µM (inactive).
For N#CCCN(C(=O)CCl)c1cccc(Cl)c1, the AC50 was 38.9 µM.
In the case of CC1C(=O)C(C)C(c2cc(Cl)ccc2O)NC1c1cc(Cl)ccc1O (stereo not given), the AC50 is reported as 5.18 µM.
In the case of O=C1C=C(Nc2ccccc2)c2ccccc2C1=O, the AC50 is reported as 5.18 µM.
Work on O=C1c2ccccc2-c2c1nc1c([n+]2[O-])CCCC1 yielded an AC50 of 31.3 µM.
In the case of COc1ccc(-c2oc(NC(=O)CCl)c(C#N)c2-c2ccc(OC)cc2)cc1, the AC50 is reported as 1.55 µM.
Work on N=C(N)SCc1cn(-c2ccccc2)nc1-c1ccc(Br)cc1 yielded an AC50 of 16.2 µM.
In the case of NS(=O)(=O)c1ccc(N=Cc2c(O)c3ccccc3oc2=O)cc1, the AC50 is reported as > 38 µM (inactive).
CC(C)Cc1ccc(-c2cc(=O)[nH][nH]2)cc1 gave an AC50 of 13.1 µM.
In the case of O=C1/C(=C\c2cccc(O)c2O)SC(=S)N1Cc1ccccc1, the AC50 is reported as > 38 µM (inactive).
Molecule CCCCCCCCCCCCCCCC[N+](C)(C)C has an AC50 of 12.1 µM.
In the case of NC(=O)c1c(-c2cccs2)csc1N, the AC50 is reported as > 38 µM (inactive).
For COC(=O)c1nc(-c2ccc3c(n2)C(=O)C(N)=C(OC)C3=O)c(N)c(-c2ccc(OC)c(OC)c2O)c1C, the AC50 was 0.763 µM.
CCOc1ccc(S(=O)(=O)Nc2cc(SCC(=O)O)c(O)c3ccccc23)cc1 showed an AC50 of 2.81 µM.
Molecule Cc1[nH]n(-c2ccccc2)c(=O)c1C(C[N+](=O)[O-])c1ccc(Br)cc1 (stereo not given) has an AC50 of 11.1 µM.
For Oc1ccc(N=Cc2ccc(OCc3ccccc3)cc2)cc1, the AC50 was > 38 µM (inactive).
O=C(NC1CCCC1)C(c1ccc(F)cc1)N(Cc1ccc(F)cc1)C(=O)CCl (stereo not given) gave an AC50 of 2.96 µM.
Molecule O=S(=O)(Nc1c(O)ccc2ccccc12)c1cccc2ccccc12 has an AC50 of 26.8 µM.
In the case of O=C(O)CN1C(=O)/C(=C\c2cccc(OC(=O)c3ccco3)c2)SC1=S, the AC50 is reported as > 38 µM (inactive).
With Cc1onc(-c2ccccc2)c1-c1nc2cc(Cl)ccc2c(=O)o1 the AC50 was > 38 µM (inactive).
With O=C(NC1(O)C(=O)c2ccccc2C1=O)c1c(Cl)cccc1Cl the AC50 was 12.5 µM.
CC(C)(c1ccccc1)c1ccc(OCC2CO2)cc1 (stereo not given) showed an AC50 of 8.68 µM.
Cc1cc(C)cc(Cn2ncc(Cl)c(Cl)c2=O)c1 showed an AC50 of 1.38 µM.
With O=c1c(Cl)nc2cc(Cl)ccc2n1CCNc1ncc(C(F)(F)F)cc1Cl the AC50 was > 38 µM (inactive).
With COCC(C)NC(=O)CCS(=O)(=O)c1nc(-c2ccc(OC)cc2)cc(C(F)(F)F)n1 (stereo not given) the AC50 was > 38 µM (inactive).
With COc1ccc(C(=O)N/N=C\c2coc3ccc(Cl)cc3c2=O)cc1 the AC50 was > 38 µM (inactive).
For CCCn1c(=O)[nH]c(=O)c2c1nc(-c1ccc(OC(F)F)c(OC)c1)n2CCOC, the AC50 was > 38 µM (inactive).
Work on O=C(NCc1cccnc1)/C(=C\c1ccc(-c2ccc(Br)cc2)o1)S(=O)(=O)c1ccccc1 yielded an AC50 of 24.7 µM.
Cc1ccc(S(=O)(=O)c2c(N)n(CCC(C)C)c3nc4ccccc4nc23)cc1 gave an AC50 of 5.3 µM.
With Cc1ccc(Sc2c([N+](=O)[O-])ncn2C)cc1 the AC50 was > 38 µM (inactive).
In the case of COc1cc(C(=O)NCC(=O)N/N=C/c2cccc(OC(=O)c3ccco3)c2)cc(OC)c1OC, the AC50 is reported as > 38 µM (inactive).
Nc1ccc2nc[nH]c2c1 gave an AC50 of 10.6 µM.
In the case of O=C(Oc1ccccc1N1C(=O)CCC1=O)c1ccco1, the AC50 is reported as > 38 µM (inactive).
For CCOc1cc(/C=N\NC(=O)OC(C)(C)C)ccc1OC(=O)c1ccco1, the AC50 was > 38 µM (inactive).
Work on COc1ccc(N(C(=O)CCl)C(C(=O)NCCc2ccccc2)c2cccs2)cc1Cl (stereo not given) yielded an AC50 of 0.672 µM.
Molecule COc1ccc(/C=C2/C(=O)N(c3ccccc3)N=C2C)cc1OC has an AC50 of 5.49 µM.
In the case of Cc1ccc(/C=C2\SC(N3CCN(C(c4ccccc4)c4ccccc4)CC3)=NC2=O)o1, the AC50 is reported as 4.48 µM.
For CCOC(=O)c1nnc(-c2ccccc2)nc1Sc1c(Cl)cccc1Cl, the AC50 was > 38 µM (inactive).
CC1=C(CC(=O)c2ccc(Cl)cc2)C(=O)c2ccccc2C1=O showed an AC50 of 16.3 µM.
For O=C(Nc1ccccc1)C1=C(c2ccccc2)S(=O)(=O)CCS1(=O)=O, the AC50 was > 38 µM (inactive).
CC1=NN(c2ccc(S(=O)(=O)O)cc2C)C(=O)C1 gave an AC50 of 6.31 µM.
With O=S(=O)(N[C@H]1C[C@@H](NS(=O)(=O)OCC(Cl)(Cl)Cl)C2CCCCC21)OCC(Cl)(Cl)Cl (stereo not given in full) the AC50 was 3.37 µM.
Work on O=C(O)c1ccc(NC2=C(Cl)C(=O)c3ccccc3C2=O)cc1 yielded an AC50 of 3.91 µM.
O=C(CCl)Nc1c(C(=O)Nc2ccc3c(c2)OCCO3)oc2ccccc12 showed an AC50 of 4.49 µM.
With COc1ccc(C2NC(=O)NC3=C2CCc2ccccc23)cc1 (stereo not given) the AC50 was > 38 µM (inactive).
For O=C(CCl)N1c2ccccc2CCc2ccccc21, the AC50 was 3.76 µM.
O=C(NN=c1c(=O)c2ccccc2c1=O)c1ccccc1 showed an AC50 of 8.96 µM.
With Nc1nn2c(-c3ccccc3)cc(=O)[nH]c2c1N=Nc1ccc(O)cc1 the AC50 was > 38 µM (inactive).
For CC1CCCN(C2=C(Cl)C(=O)N(c3cccc(Cl)c3)C2=O)C1 (stereo not given), the AC50 was > 38 µM (inactive).
With Cc1ccc(S(=O)(=O)Nc2c(O)ccc3ccccc23)cc1 the AC50 was 8.05 µM.
In the case of Cc1ccc(-c2cc(=O)[nH][nH]2)c(C)c1, the AC50 is reported as 34.3 µM.
c1ccc(C2[C@H]3CN(Cc4cccnc4)[C@H](c4ccccc4)C34CC2(c2cccnc2)C4)cc1 (stereo not given in full) gave an AC50 of 10.7 µM.
Work on COc1ccc(O)c(C(c2c(C)[nH][nH]c2=O)c2c(C)[nH][nH]c2=O)c1 yielded an AC50 of 8.26 µM.
Molecule COc1cc(C(c2c(C)[nH][nH]c2=O)c2c(C)[nH][nH]c2=O)cc(OC)c1OC has an AC50 of 11.8 µM.
With CCOC(=O)C(CC)Sc1ncnc2c1nnn2-c1ccc(F)cc1 (stereo not given) the AC50 was > 38 µM (inactive).
With CNc1ccc2nc3ccccc3[n+](C)c2c1 the AC50 was 11.3 µM.
In the case of CCCCCCCCCCCCCCCCn1cc[n+](C)c1, the AC50 is reported as 7.12 µM and 7.27 µM.
With COc1ccc(-c2cc(=O)[nH][nH]2)cc1 the AC50 was 8.39 µM.
In the case of O=C(NNC(=O)c1ccc2ccccc2c1O)c1ccccc1Cl, the AC50 is reported as > 38 µM (inactive).
CCOc1cccc(-c2cc(=O)[nH][nH]2)c1 showed an AC50 of 10.7 µM.
Molecule Cc1ccc(NC2=C(N3CCOCC3)C(=O)c3ccccc3C2=O)cc1 has an AC50 of 11.3 µM.
With CC(C)(C)OC(=O)N1CC=C2C(C#N)=C(N)C(C#N)(C#N)C(c3cccs3)C2C1 (stereo not given) the AC50 was > 12 µM (inactive).
In the case of O=C(CSc1c2c(nc3cc(Cl)ccc13)CCCC2)NCc1ccco1, the AC50 is reported as 26.4 µM.
With Cc1ccc(NC2=C(N3CCCCC3)C(=O)c3ccccc3C2=O)cc1 the AC50 was 8.12 µM.
With CCOC(=O)c1c(CSC(=N)N)n(-c2ccccc2)c2cc(Br)c(OC(C)=O)cc12 the AC50 was 23.6 µM.
Molecule Cc1ccc(C2C(C#N)=C(N)Oc3n[nH]c(-c4cccs4)c32)s1 (stereo not given) has an AC50 of 3.32 µM.
With CN1CCN(c2ccc([N+](=O)[O-])c3no[n+]([O-])c23)CC1 the AC50 was > 38 µM (inactive).
In the case of O=c1[nH]cc(O)c(=O)[nH]1, the AC50 is reported as 7.38 µM.
Work on COc1ccc(C2=NN(c3nc(C)cc(C)n3)C(=O)C2)cc1 yielded an AC50 of 5.75 µM.
With O=C(CN1C(=O)S/C(=C\C=C\c2ccccc2)C1=O)Nc1ccc(C(=O)O)cc1 the AC50 was 29.6 µM.
In the case of O=C(N/N=C/c1ccc([N+](=O)[O-])o1)c1ccccc1NS(=O)(=O)c1cccs1, the AC50 is reported as > 38 µM (inactive).
In the case of O=C1C(Cl)=C(N2CCOCC2)C(=O)N1c1ccc(Br)cc1, the AC50 is reported as > 38 µM (inactive).
O=C1C(Nc2ccccc2)=C/C(=N/S(=O)(=O)c2cccs2)c2ccccc21 gave an AC50 of 0.226 µM.
In the case of O=Cc1sc(=O)n(Cc2cccc(C(=O)O)c2)c1Cl, the AC50 is reported as > 12 µM (inactive).
